# Laboratory results taken from patent US9499552B2, “Pyrazolo[1,5-A]pyrimidine derivative and use of anti-tumor thereof” (YANTAI UNIVERSITY, priority 2014, dated 2016).
# pEC50, pIC50: −log10 of the molar value.
# Assays:
# [1] = target: T1, TRPC6 ion channels (Mus musculus, UniProt Q61143); test: Fluorescent membrane potential (FMP) detection of TRPC6 activation; assay type: cell-based; details: M085 at 0.4 μM~30 μM; HEK293 cells permanently transfected with TRPC6
# T1 construct: expressed in transfected cells; host or cells: HEK293 co-expressing M5 muscarinic receptor
# T1 sequence (Q61143 1-930): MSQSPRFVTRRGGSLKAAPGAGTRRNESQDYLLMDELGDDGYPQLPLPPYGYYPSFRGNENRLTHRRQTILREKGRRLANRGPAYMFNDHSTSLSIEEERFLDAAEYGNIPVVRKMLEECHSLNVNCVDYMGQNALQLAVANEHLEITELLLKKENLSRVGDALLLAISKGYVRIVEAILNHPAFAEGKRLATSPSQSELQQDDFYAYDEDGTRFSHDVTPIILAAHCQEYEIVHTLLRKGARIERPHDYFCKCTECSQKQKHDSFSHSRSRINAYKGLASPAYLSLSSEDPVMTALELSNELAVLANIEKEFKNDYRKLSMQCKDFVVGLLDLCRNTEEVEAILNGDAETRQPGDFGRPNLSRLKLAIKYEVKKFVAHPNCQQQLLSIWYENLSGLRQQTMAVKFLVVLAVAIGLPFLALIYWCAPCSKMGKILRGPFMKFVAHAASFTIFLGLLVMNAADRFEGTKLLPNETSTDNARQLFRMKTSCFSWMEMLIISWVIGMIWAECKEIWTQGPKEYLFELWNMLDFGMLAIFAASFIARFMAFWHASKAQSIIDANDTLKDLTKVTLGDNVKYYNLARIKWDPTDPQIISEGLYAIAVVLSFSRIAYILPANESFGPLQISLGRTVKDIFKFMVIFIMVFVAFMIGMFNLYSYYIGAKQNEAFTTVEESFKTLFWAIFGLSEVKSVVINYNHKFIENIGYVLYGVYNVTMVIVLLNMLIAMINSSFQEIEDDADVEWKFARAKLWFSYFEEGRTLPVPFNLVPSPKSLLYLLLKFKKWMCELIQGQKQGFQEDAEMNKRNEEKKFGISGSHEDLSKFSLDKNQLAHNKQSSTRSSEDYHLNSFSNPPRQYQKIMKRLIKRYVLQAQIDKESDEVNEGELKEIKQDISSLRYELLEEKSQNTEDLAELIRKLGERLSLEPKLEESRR
# Protocol: Pyrazolopyrimidines and their derivatives activated TRPC6 ion channels (FIG. 1). In HEK293 cells permanently transfected with TRPC6 ion channels, M085 was used as activator to detect the fluorescent membrane potential. Firstly, cells were stained with FLIPR membrane potential dyes (FMP). At 30 s, 0.1 μM, 0.4 μM, 1.1 μM, 3.3 μM, 10 μM, 30 μM of M085 were added, respectively.
# [2] = tested on: HEK293 cells which were not transfected with TRPC6 ion channels; test: Fluorescent membrane potential detection in non-transfected control cells; assay type: cell-based; details: M085 0.1-30 μM
# [3] = target: T2, mice TRPC6 (Mus musculus, UniProt Q61143); test: Fluorescence calcium flux (Fluo4) detection of TRPC6 activation; assay type: cell-based; details: HEK293 cells expressing mice TRPC6
# T2 construct: expressed in transfected cells; host or cells: HEK293
# T2 sequence (Q61143 1-930): T1 sequence (Q61143 1-930)
# Protocol: Similar fluorescence calcium flux was used to detect the effect of M085 on [Ca^2+] concentration in HEK293 cells expressing mice TRPC6. The cells were stained using Ca^2+ indicator Fluo4. At 30 s, 0.1 μM, 0.4 μM, 1.1 μM, 3.3 μM, 10 μM, 30 μM of M085 were added. […] Wherein, M086 was subjected to fluorescent calcium flux detection and fluorescent membrane potential detection, respectively.
# [4] = target: T3, TRPC6 channel (Mus musculus, UniProt Q61143); test: Whole-cell patch clamp assay, TRPC6 activation; assay type: cell-based; details: for activation effect for TRPC6 channel (whole-cell patch clamp): HEK293 cells clamped at -100~+100 mV
# T3 construct: expressed in transfected cells; host or cells: HEK293
# T3 sequence (Q61143 1-930): T1 sequence (Q61143 1-930)
# Text: HEK293 cells were clamped at −100˜+100 mV in the whole-cell recording mode.
# [5] = target: T3, TRPC6 channel; test: Whole-cell patch clamp assay, TRPC6 inhibition (carbachol-activated); assay type: cell-based; details: for inhibition of TRPC6 channel (whole-cell patch clamp): HEK293 cells clamped at -100~+100 mV
# Protocol: M107 is representative (FIG. 3B, C). HEK293 cells were clamped at −100˜+100 mV in whole-cell recording mode. TRPC6 ion channels activated by carbachol (CCh, 30 μM) was inhibited by M107 (20 μM). At −100˜+100 mV, 20 μM of M107 provided 60% and 20% of inhibition rate for CCh (n=5).
# [6] = tested on: MCF7 human breast cancer cell line; test: MTT cytotoxic activity, MCF7; assay type: cell-based; details: 72 h, read-out: IC50 cytotoxic activity in vitro
# Protocol: (§1) After the cells in logarithmic growth phase were digested with 0.25% trypsin-EDTA, a cell suspension at a certain concentration was prepared. Depending on cell growth rate, they were inoculated in 96-well plates at 1000-2000 cells/well. To each well 100 μL of the cell suspension was added. After 24 h, fresh medium containing various concentrations of the compounds or the corresponding solvent were added at 100 μL per well (DMSO final concentration <0.1%). 5 to 7 dose groups were arranged for each test compound. Each group comprised at least 3 parallel wells. After further culturing at 37° C. for 72 h, the supernatant was discarded. 100 μL of fresh serum-free medium containing 0.5 mg/mL MTT was added to each well, further cultured for 2 h. After the supernatant was discarded, to each well was added 200 μL DMSO to dissolve MTT formazan precipitate. After mixing homogeneously by a microoscillator, optical density (OD) was measured at 450 nm of reference wavelength, and at 570 nm of detection wavelength by a Microplate reader. The tumor cells treated by the solvent control was used as the control group. The inhibition rate of tumor cells for the compounds were calculated by the following equation and IC50 was calculated by the half of inhibition equation: […]
# [7] = tested on: H460 human lung cancer cell line; test: MTT cytotoxic activity, H460; assay type: cell-based; details: 72 h, read-out: IC50 cytotoxic activity in vitro
# Protocol: as §1
# [8] = tested on: KB human oral epithelium carcinoma cell line; test: MTT cytotoxic activity, KB; assay type: cell-based; details: 72 h, read-out: IC50 cytotoxic activity in vitro
# Protocol: as §1
# [9] = tested on: Lncap human prostate cancer cell line; test: MTT cytotoxic activity, Lncap; assay type: cell-based; details: 72 h, read-out: IC50 cytotoxic activity in vitro
# Protocol: as §1
# [10] = tested on: Pc3 human prostate cancer cell line; test: MTT cytotoxic activity, Pc3; assay type: cell-based; details: 72 h, read-out: IC50 cytotoxic activity in vitro
# Protocol: as §1
# [11] = tested on: Du145 human prostate cancer cell line; test: MTT cytotoxic activity, Du145; assay type: cell-based; details: 72 h, read-out: IC50 cytotoxic activity in vitro
# Protocol: as §1
# [12] = tested on: RM-1 mouse prostate cancer cell line; test: MTT cytotoxic activity, RM-1; assay type: cell-based; details: RM-1, MTT, 72 h; read-out: IC50 cytotoxic activity in vitro
# Protocol: as §1
# [13] = tested on: prostate cancer RM-1 transplanted tumor; test: Mice prostate cancer RM-1 transplanted tumor model; assay type: in vivo; details: for Inhibition rate of tumor growth / Tumor weight / body weight of Animals, Final / body weight of Animals, Initial: male C57/BL6 mice, i.p., Docetaxel 10 mg/kg × 3, M110 50 mg/kg × 4
# Protocol: Male C57/BL6 mice (18-22 g) were used. The experiment procedures are summarized as follows: mice who had prostate cancer RM-1 and grown well were sacrificed by cervical dislocation. Under sterile conditions, tumor mass growing well was stripped off, homogenized, diluted with physiological saline in 1:4. Each mouse was inoculated 0.2 mL of the tumor solution in the armpit and back (approximately 2*10^6 cells). On the next day, the animals were randomized into groups and the administration began. Compound M110 was administered at 50 mg/kg by intraperitoneal injection at 24 h after inoculation. The dosing volume was 0.1 mL/10 g. At the same time, docetaxel control group and solvent control group were set. As for the docetaxel group, the animals were administered by intraperitoneal injection at 10 mg/kg dose, the dosing volume was 0.1 mL/10 g. After continuous administration for 10 days, the animals were sacrificed by cervical dislocation, weighed the body and the tumor, respectively. Inhibition rate of tumor growth (%) was calculated, and the results were statistically processed.
structure (smiles),measurement,setting,value
CCOC(=O)N1CCC(c2cc(O)n3nc(C)c(-c4ccc(F)cc4)c3n2)CC1 [Compound M085],membrane depolarization (FMP fluorescence),[1],increase of membrane depolarization
same,fluorescent change (FMP),[2],no significantly fluorescent change
same,activating effect for TRPC6 ion channel (fluorescence calcium flux),[3],exhibited activating effect
same,intracellular [Ca2+],"[3]; M085 at 3.3 μM~30 μM, Fluo4",significantly increased
same,activation effect for TRPC6 channel (whole-cell patch clamp),[4],have activation effect
same,pEC50,"[4]; HEK293 cells, concentration response 0.04-10 μM, n=5-7",5.60
CCOC(=O)N1CCC(C)(c2cc(O)n3nc(C)c(-c4ccc(F)cc4)c3n2)CC1 [Compound M110],inhibition of TRPC6 channel (whole-cell patch clamp),[5],inhibited TRPC6 channel
same,pIC50,[6],4.92
same,pIC50,[7],4.66
same,pIC50,[8],5.02
same,pIC50,[9],5.36
same,pIC50,[10],4.51
same,pIC50,[11],< 4.00
same,pIC50,[12],4.59
same,Inhibition rate of tumor growth,[13],23%
same,Tumor weight,[13],2.0 ± 0.73 g
same,"body weight of Animals, Final",[13],21.33 ± 1.51 g
same,"body weight of Animals, Initial",[13],20.00 ± 0.76 g
same,pharmacological activity in vivo on RM-1 transplanted tumor growth,[13]; mice,inhibit growth of prostate cancer RM-1 transplanted tumor
Cc1nn2c(O)cc(C3CCN(C(=O)OCc4ccccc4)CC3)nc2c1-c1ccc(Cl)cc1 [Compound M091],activating effect for TRPC6 ion channel (fluorescence calcium flux),[3],exhibited activating effect
same,activation effect for TRPC6 channel (whole-cell patch clamp),[4],have activation effect
"CC(=O)O[C@@]12CO[C@@H]1C[C@H](O)[C@@]1(C)C(=O)[C@H](O)C3=C(C)[C@@H](OC(=O)[C@H](O)[C@@H](NC(=O)OC(C)(C)C)c4ccccc4)C[C@@](O)([C@@H](OC(=O)c4ccccc4)[C@H]21)C3(C)C [Docetaxel, docetaxel, reference compound]",Inhibition rate of tumor growth,[13],32%
same,Tumor weight,[13],1.77 ± 0.61 g
same,"body weight of Animals, Final",[13],18.43 ± 2.17 g
same,"body weight of Animals, Initial",[13],20.00 ± 1.07 g
Cc1nn2c(O)cc(C3CCN(C(=O)OC(C)(C)C)CC3)nc2c1-c1ccc(F)cc1 [Compound M107],"inhibition rate for CCh-activated TRPC6 current, first value","[5]; 20 μM compound, CCh 30 μM, at -100~+100 mV (first printed, -100 mV), n=5",60%
same,"inhibition rate for CCh-activated TRPC6 current, second value","[5]; 20 μM compound, CCh 30 μM, at -100~+100 mV (second printed, +100 mV), n=5",20%
same,inhibition of TRPC6 channel (whole-cell patch clamp),[5],inhibited TRPC6 channel
CCOC(=O)N1CCC(c2cc(O)n3nc(C)c(-c4ccc(C(F)(F)F)cc4)c3n2)CC1 [Compound M092],activating effect for TRPC6 ion channel (fluorescence calcium flux),[3],exhibited activating effect
same,activation effect for TRPC6 channel (whole-cell patch clamp),[4],have activation effect
Cc1nn2c(O)cc(C3CCN(C(=O)OCc4ccccc4)CC3)nc2c1-c1ccc(F)cc1 [Compound M086],activating effect for TRPC6 ion channel (fluorescence calcium flux),[3],exhibited activating effect
same,activation effect for TRPC6 channel (whole-cell patch clamp),[4],have activation effect
